Measured values taken from patent US4618612A (Medosan Industrie Biochimiche Riunite S.p.A., priority 1983, dated 1986).
Where two headings read alike, the source gives them in different places.

What was measured:
in vivo [1] = conditions: rat, rats
Solubility = type: physicochemical; conditions: common organic solvents
in vivo [2] = conditions: mouse, mice
carragenin-induced edema = assay: Carragenin-induced edema test (Winter); type: in vivo, rat
Experimental: This effect was measured with an experimental model reproducing acute inflammation in rats: the carragenin-induced edema test according to C.

[3] = system: human platelet aggregation (PRP); assay: Human platelet aggregation in vitro induced by ADP, adrenalin, collagen or arachidonate; type: cell-based; conditions: Homo sapiens
Experimental: Blood samples (20 ml) were obtained by venal puncture of the antecubital fossa using plastic syringes containing trisodium citrate as anticoagulant (final concentration 0.19% w/v). Platelet rich plasma (PRP) was harvested after slow centrifugation at 170 g for 12 min. and 0.2 ml aliquots were dispensed into plastic cuvettes and stored at room temperature throughout the experiment.
Aliquots of 0.2 ml PRP from each sample were treated with ADP, adrenalin, collagen or arachidonate, until the threshold concentrations of these aggregating agents had been reached. The threshold concentration is defined as the minimum whcih will produce irreversible aggregation. Once established, the threshold concentration was used to challenge test samples of each of the 2 test compounds or vehicle (DMSO) which had been incubated for 1 min. at 37 C. in the holding cell of the agregometer, prior to addition of the aggregating agent.
This was reported as the final concentration in the PRP after addition of 2.5-10 ul of test substance.

gastric mucosa = assay: Gastric tolerance (ulcerogenic activity); type: in vivo, male Wistar rats; conditions: 4 days; for Mean Severity: scale 0-5; for Gastric Damage index: vehicle 8
Experimental: This was studied by conducting tests of ulcerogenic activity in male Wistar rats, weighing 180 g on the average, in groups of 10 animals each. Three doses of each substance were given, and one group of animals was treated with vehicle only in a volume of 10 ml/kg bodyweight. Each dose was given orally for four consecutive days; on the fifth day, the rats were killed and autopsied. The ulcerogenic effect was assessed according to the following scale:
(1) each hemorrhage point ≥1 mm was evaluated as 1 lesion
(2) hemorrhage points smaller than 1 mm were counted as follows:
(b) from 1 to 19:2 lesions
(c) from 1 to 29:3 lesions
(2) gastric mucosa irritation: 1
(3) hemorrahge points <1 mm: 2
(4) hemorrhage points between 1 and 3 mm: 3
(5) hemorrhage points >3 mm: 4
This scale was used to calculate the following gastric damage index: [formula]

[4] = system: rat platelet-rich plasma (ADP-induced platelet aggregation); assay: Anti-platelet aggregation activity in vitro (Born's method), rat platelet-rich plasma, ADP-induced; type: cell-based
Experimental: Preparations (A), (B), (C), (D), (E) and (F) were administered "in vivo" orally and/or parenterally in 0.5% carboxymethylcellulose suspensions in physiological saline at neutral pH. When tested "in vitro", they were finely dispersed in neutral pH physiological saline.
This was studied "in vitro" following Born's method (Born G. W. R., Nature, 194, 937 (1962)) and inducing platelet aggregation with ADP.
Platelet-rich plasma was obtained by centrifugation for 10 minutes at 2,000 rpm of 9 parts rat blood to 1 part 3.13% sodium citrate solution. In performing the aggregation test, 0.2 ml of platelet rich plasm was mixed with a 0.9% NaCl solution to which the test substance was added to a final volume of 0.6 ml; the resulting mixture was incubated at 27° C. for 3 minutes. After inducement with ADP, aggregation was measured continuously with an Elvi 840 Aggregometer (Elvi Logos-Milan) to follow its course. The anti-aggregant effects were determined from the difference in the light transmission of the sample with respect to an ADP control.
Table I reports the platelet aggregation inhibition using different doses of the test compounds at a constant ADP concentration.

Cc1ccc(C(=O)c2ccc(CC(=O)OCCn3cnc4c3c(=O)n(C)c(=O)n4C)n2C)cc1 [(A), 1-Methyl-5-p-methylbenzoylpyrrol-2-acetate of 7-(2-oxyethyl)theophylline]
LD50 (in vivo [1]; ip, I.P.): 800 mg/kg
LD50 (in vivo [1]; po, OS): 1150 mg/kg
Solubility (Solubility): Soluble in common organic solvents
LD50 (in vivo [2]; ip, I.P.): 950 mg/kg
LD50 (in vivo [2]; po, OS): 1270 mg/kg
% Edema Inhibition (carragenin-induced edema; I.P., 10 mg/kg, 3 h): 35,0%
% Edema Inhibition (carragenin-induced edema; I.P., 10 mg/kg, 6 h): 26,0%
% Edema Inhibition (carragenin-induced edema; I.P., 10 mg/kg, 24 h): 0,0%
% Edema Inhibition (carragenin-induced edema; I.P., 50 mg/kg, 3 h): 54,0%
% Edema Inhibition (carragenin-induced edema; I.P., 50 mg/kg, 6 h): 40,0%
% Edema Inhibition (carragenin-induced edema; I.P., 50 mg/kg, 24 h): 0,0%
% Edema Inhibition (carragenin-induced edema; I.P., 100 mg/kg, 3 h): 65,0%
% Edema Inhibition (carragenin-induced edema; I.P., 100 mg/kg, 6 h): 56,1%
% Edema Inhibition (carragenin-induced edema; I.P., 100 mg/kg, 24 h): 0,0%
% Edema Inhibition (carragenin-induced edema; OS, 10 mg/kg, 3 h): 34,6%
% Edema Inhibition (carragenin-induced edema; OS, 10 mg/kg, 6 h): 22,2%
% Edema Inhibition (carragenin-induced edema; OS, 10 mg/kg, 24 h): 0,0%
% Edema Inhibition (carragenin-induced edema; OS, 50 mg/kg, 3 h): 52,0%
% Edema Inhibition (carragenin-induced edema; OS, 50 mg/kg, 6 h): 41,1%
% Edema Inhibition (carragenin-induced edema; OS, 50 mg/kg, 24 h): 0,0%
% Edema Inhibition (carragenin-induced edema; OS, 100 mg/kg, 3 h): 62,0%
% Edema Inhibition (carragenin-induced edema; OS, 100 mg/kg, 6 h): 57,3%
% Edema Inhibition (carragenin-induced edema; OS, 100 mg/kg, 24 h): 10,0%
minimal effective concentration ([3]; ATH-8, 1 min, ADP, volunteer 3, read-out: Minimum Effective Concentration (Final in PRP)): 100 µM
minimal effective concentration ([3]; ATH-8, 1 min, Adrenalin, volunteer 3, read-out: Minimum Effective Concentration (Final in PRP)): 10 µM
minimal effective concentration ([3]; ATH-8, 1 min, Arachidonate, volunteer 3, read-out: Minimum Effective Concentration (Final in PRP)): 250 µM
minimal effective concentration ([3]; ATH-8, 1 min, Collagen, volunteer 3, read-out: Minimum Effective Concentration (Final in PRP)): 700 µM
minimal effective concentration ([3]; Platelet, 1 min, ADP, volunteer 1, read-out: Minimum Effective Concentration (Final in PRP)): 10 µM
minimal effective concentration ([3]; Platelet, 1 min, ADP, volunteer 2 (donor gamma), read-out: Minimum Effective Concentration (Final in PRP)): 10 µM
minimal effective concentration ([3]; Platelet, 1 min, Adrenalin, range over 3 volunteers, read-out: Minimum Effective Concentration Range): 10 µM
minimal effective concentration ([3]; Platelet, 1 min, Adrenalin, volunteer 1, read-out: Minimum Effective Concentration (Final in PRP)): 10 µM
minimal effective concentration ([3]; Platelet, 1 min, Adrenalin, volunteer 2 (donor gamma), read-out: Minimum Effective Concentration (Final in PRP)): 10 µM
minimal effective concentration ([3]; Platelet, 1 min, Arachidonate, volunteer 1, read-out: Minimum Effective Concentration (Final in PRP)): 100 µM
minimal effective concentration ([3]; Platelet, 1 min, Arachidonate, volunteer 2 (donor gamma), read-out: Minimum Effective Concentration (Final in PRP)): 10 µM
minimal effective concentration ([3]; Platelet, 1 min, Collagen, volunteer 1, read-out: Minimum Effective Concentration (Final in PRP)): 100 µM
minimal effective concentration ([3]; Platelet, 1 min, Collagen, volunteer 2 (donor gamma), read-out: Minimum Effective Concentration (Final in PRP)): 550 µM
% incidence 10 (gastric mucosa; 50 mg/kg oral): 6 %/10
Gastric Damage index, second figure (after +; difference from vehicle) (gastric mucosa; 50 mg/kg oral): 1
Mean No. lesions (gastric mucosa; 50 mg/kg oral): 1
Mean Severity (gastric mucosa; 50 mg/kg oral): 2
Gastric Damage index (gastric mucosa; 50 mg/kg oral): 9
% incidence 10 (gastric mucosa; 100 mg/kg oral): 8 %/10
Gastric Damage index, second figure (after +; difference from vehicle) (gastric mucosa; 100 mg/kg oral): 4
Mean No. lesions (gastric mucosa; 100 mg/kg oral): 2
Mean Severity (gastric mucosa; 100 mg/kg oral): 2
Gastric Damage index (gastric mucosa; 100 mg/kg oral): 12
% incidence 10 (gastric mucosa; 200 mg/kg oral): 8 %/10
Gastric Damage index, second figure (after +; difference from vehicle) (gastric mucosa; 200 mg/kg oral): 6
Mean No. lesions (gastric mucosa; 200 mg/kg oral): 3
Mean Severity (gastric mucosa; 200 mg/kg oral): 3
Gastric Damage index (gastric mucosa; 200 mg/kg oral): 14
% Inhibition ([4]; ADP 2 μmol/l, dose 1 V/ml (Table II)): 42%
% Inhibition ([4]; ADP 5 μmol/l, dose 1 V/ml (Table II)): 30%
% Inhibition ([4]; ADP 7.08 μmol/l, dose 1 /ml (Table I)): 25%
% Inhibition ([4]; ADP 7.08 μmol/l, dose 2,5 /ml (Table I)): 100%
% Inhibition ([4]; ADP 7.08 μmol/l, dose 5 /ml (Table I)): 100%
